Test: Study HDP-CDV-201: safety and tolerability (adverse events, laboratory abnormalities, discontinuations)
Type: in vivo, human (adult allogeneic HSCT recipients)
Experimental: Clinical Studies of HDP-CDV were performed and described in detail in the following Examples. For example, HDP-CDV-201 is a placebo-controlled, dose-escalating trial in HSCT CMV (R+) recipients, evaluating the ability of HDP-CDV to prevent or control CMV infection was carried out. Five cohorts were established in which participants or subjects received either placebo or the HDP-CDV orally, in doses ranging from 40 mg weekly (QW) to 200 mg twice weekly (BIW). Subjects who were post-HSCT were enrolled at the time of engraftment and randomized to HDP-CDV or placebo (3 to 1 ratio) and received blinded therapy until approximately 100 day post-transplantation. HDP-CDV doses were 40 mg QW, 100 mg QW, 200 mg QW, 200 mg BIW and 100 mg BIW. Escalation to the next dose was decided by the data monitoring committee after review of the safety data from the previous Cohort. Subjects who developed CMV disease or CMV infection requiring pre-emptive therapy with local standard of care were discontinued from blinded therapy and followed for 4 weeks. Subjects who completed treatment with blinded therapy were followed for 8 weeks post-therapy.
Data from Study HDP-CDV-201 also provided characterization of the safety and tolerability profile of HDP-CDV when administered for the prevention or control of CMV infection in high risk (R^+) post-HSCT adult subjects.
The Safety population (SAFETY) included all randomized subjects who took at least one dose of study treatment. This population was used to summarize safety outcomes based on the treatment actually received, in cases where a subject was treated contrary to the randomization schedule.
The safety and tolerability profile of HDP-CDV, including subject demographics and Baseline characteristics; the AE profile; and laboratory abnormalities of interest were analyzed in the cohorts followed in this investigation.
Subjects completing the treatment period received a full course of study medication; those completing the entire study attended visits through 8 weeks of follow up. Subjects who discontinued treatment may have done so for protocol specified reasons (e.g. development of clinically significant CMV infection requiring preemptive treatment with excluded anti-CMV medications) or for other reasons (e.g., withdrawal, adverse events, loss to follow-up). The disposition of subjects in Study HDP-CDV-201 during the double-blind, placebo-controlled treatment period (through Week 11) is listed by dosing Cohort in TABLE 23.
Adverse events were examined by severity to ensure that all safety signals were identified in this study population. Because of the frequency of events in HSCT recipients, particular attention was given to evaluation of Grade 3 […], 4 (severe), and 5 (fatal) adverse events.
Only those preferred terms for which at least one Grade 3 or higher event was experienced in any treatment group are listed. Cytomegalovirus-related AEs are excluded from this analysis.
HDP-CDV is a lipid conjugate of CDV. Because CDV is known to have adverse effects on renal function and bone marrow, decreased GFR and persistent neutropenia were identified as AEs of special interest. Key renal and hematological (TABLE 30) laboratory parameters were measured and listed below by Study HDP-CDV-201 treatment groups. TABLE 30 includes abnormal levels of serum creatinine, neutrophils, platelets, WBCs, and hemoglobin and includes data at Screening and during the treatment period.
A common metric for unit based dosing of medications is by weight (mg/kg). When the distribution of weights was examined for all subjects participating in the study, the median was 78 kg and the lower 25th percentile weight was approximately 65 kg, which translates to a cut-off of ˜3 mg/kg for a 200 mg total weekly dose. Based upon this approach, a cut-off of 3 mg/kg was used to assess the frequency of diarrhea and associated GI AEs reported for the subjects in Cohorts 3 or 4a (TABLE 40).

CCCCCCCCCCCCCCCCOCCCOP(=O)(O)COC(CO)Cn1ccc(N)nc1=O (stereo not drawn) [HDP-CDV]
TEAE Pneumonia, Grade 4 (40 mg QW): 1 (4.0%) | TEAE Pneumonia, Grade 5 (40 mg QW): 0 | TEAE Pyrexia, Frequency (40 mg QW): 1 (4.0%) | TEAE Pyrexia, Grade 2 (40 mg QW): 1 (4.0%) | TEAE Pyrexia, Grade 3 (40 mg QW): 0 | TEAE Pyrexia, Grade 4 (40 mg QW): 0 | TEAE Pyrexia, Grade 5 (40 mg QW): 0 | TEAE Renal Failure, Frequency (40 mg QW): 1 (4.0%) | TEAE Renal Failure, Grade 2 (40 mg QW): 0 | TEAE Renal Failure, Grade 3 (40 mg QW): 1 (4.0%) | TEAE Renal Failure, Grade 4 (40 mg QW): 0 | TEAE Renal Failure, Grade 5 (40 mg QW): 0 | TEAE Staphylococcal Bacteremia, Frequency (40 mg QW): 0 | TEAE Staphylococcal Bacteremia, Grade 2 (40 mg QW): 0 | TEAE Staphylococcal Bacteremia, Grade 3 (40 mg QW): 0 | TEAE Staphylococcal Bacteremia, Grade 4 (40 mg QW): 0 | TEAE Staphylococcal Bacteremia, Grade 5 (40 mg QW): 0 | TEAE Thrombocytopenia, Frequency (40 mg QW): 3 (12.0%) | TEAE Thrombocytopenia, Grade 2 (40 mg QW): 1 (4.0%) | TEAE Thrombocytopenia, Grade 3 (40 mg QW): 1 (4.0%) | TEAE Thrombocytopenia, Grade 4 (40 mg QW): 1 (4.0%) | TEAE Thrombocytopenia, Grade 5 (40 mg QW): 0 | TEAE Vomiting, Frequency (40 mg QW): 2 (8.0%) | TEAE Vomiting, Grade 2 (40 mg QW): 1 (4.0%) | TEAE Vomiting, Grade 3 (40 mg QW): 0 | TEAE Vomiting, Grade 4 (40 mg QW): 0 | TEAE Vomiting, Grade 5 (40 mg QW): 0 | subjects discontinued due to acute renal failure (40 mg QW): one | Subjects Reporting Diarrhea as an AE (40 mg QW, n = 25): 3 (12.0%) | Discontinuation: Death (40 mg QW, active treatment period): 1 (4.0%) Subject n (%) | Discontinuation: Adverse event (40 mg QW, active treatment period through Week 11): 3 (12.0%) Subject n (%) | TEAE ALT increased, Frequency (100 mg BIW): 9 (18.0%) | TEAE ALT increased, Grade 2 (100 mg BIW): 1 (2.0%) | TEAE ALT increased, Grade 3 (100 mg BIW): 4 (8.0%) | TEAE ALT increased, Grade 4 (100 mg BIW): 0 | TEAE ALT increased, Grade 5 (100 mg BIW): 0 | TEAE AML, Recurrent, Frequency (100 mg BIW): 3 (6.0%) | TEAE AML, Recurrent, Grade 2 (100 mg BIW): 1 (2.0%) | TEAE AML, Recurrent, Grade 3 (100 mg BIW): 0 | TEAE AML, Recurrent, Grade 4 (100 mg BIW): 1 (2.0%) | TEAE AML, Recurrent, Grade 5 (100 mg BIW): 1 (2.0%) | TEAE AST increased, Frequency (100 mg BIW): 5 (10.0%) | TEAE AST increased, Grade 2 (100 mg BIW): 1 (2.0%) | TEAE AST increased, Grade 3 (100 mg BIW): 3 (6.0%) | TEAE AST increased, Grade 4 (100 mg BIW): 0 | TEAE AST increased, Grade 5 (100 mg BIW): 0 | TEAE Abdominal pain, Frequency (100 mg BIW): 13 (26.0%) | TEAE Abdominal pain, Grade 2 (100 mg BIW): 1 (2.0%) | TEAE Abdominal pain, Grade 3 (100 mg BIW): 1 (2.0%) | TEAE Abdominal pain, Grade 4 (100 mg BIW): 0 | TEAE Abdominal pain, Grade 5 (100 mg BIW): 0 | TEAE Acute GVHD, Frequency (100 mg BIW): 32 (64.0%) | TEAE Acute GVHD, Grade 2 (100 mg BIW): 11 (22.0%) | TEAE Acute GVHD, Grade 3 (100 mg BIW): 12 (24.0%) | TEAE Acute GVHD, Grade 4 (100 mg BIW): 5 (10.0%) | TEAE Arthralgias, Frequency (100 mg BIW): 3 (6.0%) | TEAE Arthralgias, Grade 2 (100 mg BIW): 1 (2.0%) | TEAE Arthralgias, Grade 3 (100 mg BIW): 1 (2.0%) | TEAE Arthralgias, Grade 4 (100 mg BIW): 0 | TEAE Arthralgias, Grade 5 (100 mg BIW): 0 | TEAE Back Pain, Frequency (100 mg BIW): 4 (8.0%) | TEAE Back Pain, Grade 2 (100 mg BIW): 3 (6.0%) | TEAE Back Pain, Grade 3 (100 mg BIW): 0 | TEAE Back Pain, Grade 4 (100 mg BIW): 0 | TEAE Back Pain, Grade 5 (100 mg BIW): 0 | TEAE Decreased appetite, Frequency (100 mg BIW): 9 (18.0%) | TEAE Decreased appetite, Grade 3 (100 mg BIW): 3 (6.0%) | TEAE Decreased appetite, Grade 4 (100 mg BIW): 0 | TEAE Decreased appetite, Grade 5 (100 mg BIW): 0 | TEAE Diarrhea, Frequency (100 mg BIW): 26 (52.0%) | TEAE Diarrhea, Grade 2 (100 mg BIW): 6 (12.0%) | TEAE Diarrhea, Grade 3 (100 mg BIW): 9 (18.0%) | TEAE Diarrhea, Grade 4 (100 mg BIW): 0 | TEAE Diarrhea, Grade 5 (100 mg BIW): 0 | TEAE Fatigue, Frequency (100 mg BIW): 9 (18.0%) | TEAE Fatigue, Grade 2 (100 mg BIW): 2 (4.0%) | TEAE Fatigue, Grade 3 (100 mg BIW): 0 | TEAE Fatigue, Grade 4 (100 mg BIW): 0 | TEAE Fatigue, Grade 5 (100 mg BIW): 0 | TEAE GGT Increased, Frequency (100 mg BIW): 4 (8.0%) | TEAE GGT Increased, Grade 2 (100 mg BIW): 1 (2.0%) | TEAE GGT Increased, Grade 3 (100 mg BIW): 3 (6.0%) | TEAE GGT Increased, Grade 4 (100 mg BIW): 0 | TEAE GGT Increased, Grade 5 (100 mg BIW): 0 | TEAE Generalized oedema, Frequency (100 mg BIW): 1 (2.0%) | TEAE Generalized oedema, Grade 2 (100 mg BIW): 1 (2.0%) | TEAE Generalized oedema, Grade 3 (100 mg BIW): 0 | TEAE Generalized oedema, Grade 4 (100 mg BIW): 0 | TEAE Generalized oedema, Grade 5 (100 mg BIW): 0 | TEAE Hyperbilirubinaemia, Frequency (100 mg BIW): 3 (6.0%) | TEAE Hyperbilirubinaemia, Grade 2 (100 mg BIW): 1 (2.0%) | TEAE Hyperbilirubinaemia, Grade 3 (100 mg BIW): 0 | TEAE Hyperbilirubinaemia, Grade 4 (100 mg BIW): 0 | TEAE Hyperbilirubinaemia, Grade 5 (100 mg BIW): 0 | TEAE Hyperglycaemia, Frequency (100 mg BIW): 9 (18.0%) | TEAE Hyperglycaemia, Grade 2 (100 mg BIW): 4 (8.0%) | TEAE Hyperglycaemia, Grade 3 (100 mg BIW): 2 (4.0%) | TEAE Hyperglycaemia, Grade 4 (100 mg BIW): 1 (2.0%) | TEAE Hyperglycaemia, Grade 5 (100 mg BIW): 0 | TEAE Hyperkalemia, Frequency (100 mg BIW): 3 (6.0%) | TEAE Hyperkalemia, Grade 2 (100 mg BIW): 2 (4.0%) | TEAE Hyperkalemia, Grade 3 (100 mg BIW): 0 | TEAE Hyperkalemia, Grade 4 (100 mg BIW): 0 | TEAE Hyperkalemia, Grade 5 (100 mg BIW): 0 | TEAE Hypocalcaemia, Frequency (100 mg BIW): 2 (4.0%) | TEAE Hypocalcaemia, Grade 2 (100 mg BIW): 1 (2.0%) | TEAE Hypocalcaemia, Grade 3 (100 mg BIW): 1 (2.0%) | TEAE Hypocalcaemia, Grade 4 (100 mg BIW): 0 | TEAE Hypocalcaemia, Grade 5 (100 mg BIW): 0 | TEAE Hypokalaemia, Frequency (100 mg BIW): 8 (16.0%) | TEAE Hypokalaemia, Grade 2 (100 mg BIW): 2 (4.0%)

— patent US20140303092A1 (CHIMERIX, INC., priority 2011, published 2014)
